# Measured values reported in article PMC3919268, “Three-dimensional structure of a Streptomyces sviceus GNAT acetyltransferase with similarity to the C-terminal domain of the human GH84 O-GlcNAcase” (Acta Crystallographica Section D: Biological Crystallography, 2013).
# pKd: −log10 of the molar value.
# Molecular target: T1, SsAT (acetyltransferase, accession No. ZP_05014886) (Streptomyces sviceus, UniProt B5HKU0)
# T1 construct: gene SSEG_00025; recombinant N-terminally His-tagged SsAT, freshly purified
# T1 sequence (B5HKU0 entry or part of it): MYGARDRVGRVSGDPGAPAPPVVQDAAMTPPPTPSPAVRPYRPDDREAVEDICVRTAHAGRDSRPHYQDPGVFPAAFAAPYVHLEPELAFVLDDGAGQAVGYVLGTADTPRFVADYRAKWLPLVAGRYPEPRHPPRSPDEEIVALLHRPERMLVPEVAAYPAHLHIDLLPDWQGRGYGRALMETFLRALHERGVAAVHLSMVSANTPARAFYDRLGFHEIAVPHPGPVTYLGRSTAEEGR
# Assay: ITC, pH […]°C, one-site model, n close to […]
# Type: binding
smiles,measurement,value
CC(=O)SCCNC(=O)CCNC(=O)[C@H](O)C(C)(C)COP(=O)(O)OP(=O)(O)OC[C@H]1O[C@@H](n2cnc3c(N)ncnc32)[C@H](O)[C@@H]1OP(=O)(O)O [acetyl coenzyme A],pKd,4.70
